± gives the expanded uncertainty stated by the source.
Assay: xn = mol fraction of the nth substance listed
Settings: 100 kPa, Liquid; for speed of sound: Frequency=3 MHz, Sing-around technique in a fixed-path interferometer; for mass density: Vibrating tube method

CCCCOCC(C)O (stereo not given) [1-butoxy-2-propanol] + CCCO
Settings	mass density, 293.15 K [kg/m3]	mass density, 298.15 K [kg/m3]	mass density, 303.15 K [kg/m3]	mass density, 308.15 K [kg/m3]	mass density, 313.15 K [kg/m3]	speed of sound, 293.15 K [m/s]	speed of sound, 298.15 K [m/s]	speed of sound, 303.15 K [m/s]	speed of sound, 308.15 K [m/s]	speed of sound, 313.15 K [m/s]
x1 = 0.0573	812.915 ± 0.16	808.937 ± 0.16	804.905 ± 0.17	800.798 ± 0.17	796.651 ± 0.17	1230.8 ± 1.3	1213.8 ± 1.3	1197.1 ± 1.2	1180.4 ± 1.2	1164.1 ± 1.2
x1 = 0.1001	818.814 ± 0.16	814.76 ± 0.16	810.658 ± 0.16	806.519 ± 0.16	802.334 ± 0.17	1235.7 ± 1.3	1218.8 ± 1.3	1202 ± 1.3	1185.4 ± 1.2	1169 ± 1.2
x1 = 0.1558	825.901 ± 0.16	821.803 ± 0.16	817.667 ± 0.16	813.493 ± 0.16	809.279 ± 0.16	1241.5 ± 1.3	1224.8 ± 1.3	1208 ± 1.3	1191.3 ± 1.2	1174.7 ± 1.2
x1 = 0.2031	831.228 ± 0.16	827.109 ± 0.16	822.949 ± 0.16	818.753 ± 0.16	814.513 ± 0.16	1246.3 ± 1.3	1229.3 ± 1.3	1212.5 ± 1.3	1195.7 ± 1.2	1179.1 ± 1.2
x1 = 0.2532	836.415 ± 0.16	832.273 ± 0.16	828.091 ± 0.16	823.867 ± 0.16	819.599 ± 0.16	1250.7 ± 1.3	1233.6 ± 1.3	1216.8 ± 1.3	1199.8 ± 1.3	1183.1 ± 1.2
x1 = 0.3033	841.124 ± 0.15	836.955 ± 0.16	832.749 ± 0.16	828.501 ± 0.16	824.211 ± 0.16	1254.6 ± 1.3	1237.5 ± 1.3	1220.5 ± 1.3	1203.5 ± 1.3	1186.7 ± 1.2
x1 = 0.4046	849.477 ± 0.15	845.264 ± 0.15	841.013 ± 0.15	836.72 ± 0.16	832.382 ± 0.16	1261.2 ± 1.3	1243.9 ± 1.3	1226.8 ± 1.3	1209.6 ± 1.3	1192.7 ± 1.2
x1 = 0.5048	856.464 ± 0.15	852.232 ± 0.15	847.934 ± 0.15	843.623 ± 0.15	839.27 ± 0.16	1266.3 ± 1.3	1248.9 ± 1.3	1231.7 ± 1.3	1214.4 ± 1.3	1197.2 ± 1.2
x1 = 0.6055	862.441 ± 0.15	858.152 ± 0.15	853.82 ± 0.15	849.452 ± 0.15	845.054 ± 0.15	1270.3 ± 1.3	1252.9 ± 1.3	1235.6 ± 1.3	1218.2 ± 1.3	1201 ± 1.3
x1 = 0.7052	867.521 ± 0.15	863.197 ± 0.15	858.839 ± 0.15	854.443 ± 0.15	850.006 ± 0.15	1273.2 ± 1.3	1255.7 ± 1.3	1238.4 ± 1.3	1221.1 ± 1.3	1203.8 ± 1.3
x1 = 0.807	872.037 ± 0.15	867.684 ± 0.15	863.298 ± 0.15	858.874 ± 0.15	854.415 ± 0.15	1275.7 ± 1.3	1258.3 ± 1.3	1240.8 ± 1.3	1223.4 ± 1.3	1206.2 ± 1.3
x1 = 0.8546	873.936 ± 0.15	869.566 ± 0.15	865.165 ± 0.15	860.735 ± 0.15	856.272 ± 0.15	1276.8 ± 1.3	1259.3 ± 1.3	1241.8 ± 1.3	1224.2 ± 1.3	1206.6 ± 1.3
x1 = 0.9041	875.766 ± 0.15	871.424 ± 0.15	867.019 ± 0.15	862.582 ± 0.15	858.113 ± 0.15	1277.7 ± 1.3	1260.2 ± 1.3	1242.6 ± 1.3	1225 ± 1.3	1207.4 ± 1.3
x1 = 0.9537	877.527 ± 0.15	873.128 ± 0.15	868.704 ± 0.15	864.265 ± 0.15	859.772 ± 0.15	1278.5 ± 1.3	1260.8 ± 1.3	1243.2 ± 1.3	1225.6 ± 1.3	1208.1 ± 1.3
x1 = 1	879.031 ± 0.15	874.632 ± 0.15	870.204 ± 0.15	865.737 ± 0.15	861.241 ± 0.15	1279 ± 1.3	1260.9 ± 1.3	1242.9 ± 1.3	1224.9 ± 1.3	1207 ± 1.3

CCCCOCC(C)O (stereo not given) [1-butoxy-2-propanol] + CCCCO
Settings	mass density, 293.15 K [kg/m3]	mass density, 298.15 K [kg/m3]	mass density, 303.15 K [kg/m3]	mass density, 308.15 K [kg/m3]	mass density, 313.15 K [kg/m3]	speed of sound, 293.15 K [m/s]	speed of sound, 298.15 K [m/s]	speed of sound, 303.15 K [m/s]	speed of sound, 308.15 K [m/s]	speed of sound, 313.15 K [m/s]
x1 = 0.0519	815.814 ± 0.15	811.979 ± 0.15	808.09 ± 0.15	804.168 ± 0.15	800.279 ± 0.15	1259.9 ± 1.2	1243.7 ± 1.2	1227.1 ± 1.2	1210.6 ± 1.2	1193 ± 1.2
x1 = 0.0992	821.015 ± 0.15	817.166 ± 0.15	813.235 ± 0.15	809.277 ± 0.15	805.328 ± 0.15	1262.1 ± 1.2	1246.1 ± 1.2	1229.4 ± 1.2	1212.9 ± 1.2	1194.8 ± 1.2
x1 = 0.1522	826.515 ± 0.15	822.607 ± 0.15	818.628 ± 0.15	814.607 ± 0.15	810.63 ± 0.15	1264.4 ± 1.2	1248.7 ± 1.2	1232 ± 1.2	1215.4 ± 1.2	1196.7 ± 1.2
x1 = 0.2025	831.372 ± 0.14	827.404 ± 0.15	823.395 ± 0.15	819.351 ± 0.15	815.31 ± 0.15	1266.4 ± 1.2	1250.8 ± 1.2	1234.1 ± 1.2	1217.4 ± 1.2	1198.4 ± 1.2
x1 = 0.2533	835.963 ± 0.14	831.953 ± 0.15	827.91 ± 0.15	823.833 ± 0.15	819.767 ± 0.15	1268.2 ± 1.2	1252.7 ± 1.2	1235.8 ± 1.2	1219 ± 1.2	1199.9 ± 1.2
x1 = 0.3031	840.187 ± 0.14	836.14 ± 0.14	832.063 ± 0.15	827.949 ± 0.15	823.842 ± 0.15	1269.8 ± 1.2	1254.1 ± 1.2	1237.2 ± 1.2	1220.3 ± 1.2	1201.2 ± 1.2
x1 = 0.4039	847.844 ± 0.14	843.734 ± 0.14	839.592 ± 0.15	835.411 ± 0.15	831.226 ± 0.15	1272.5 ± 1.2	1256.4 ± 1.2	1239.4 ± 1.2	1222.4 ± 1.2	1203.2 ± 1.2
x1 = 0.4992	854.333 ± 0.14	850.165 ± 0.14	845.969 ± 0.15	841.732 ± 0.15	837.498 ± 0.15	1274.5 ± 1.2	1258.4 ± 1.2	1241.2 ± 1.2	1224 ± 1.2	1204.8 ± 1.2
x1 = 0.6055	860.746 ± 0.14	856.533 ± 0.14	852.278 ± 0.15	847.986 ± 0.15	843.678 ± 0.15	1276.3 ± 1.2	1260.1 ± 1.2	1242.8 ± 1.2	1225.4 ± 1.2	1206.2 ± 1.2
x1 = 0.7017	865.941 ± 0.14	861.685 ± 0.14	857.378 ± 0.15	853.038 ± 0.15	848.688 ± 0.15	1277.4 ± 1.2	1260.8 ± 1.2	1243.5 ± 1.2	1226.1 ± 1.2	1207 ± 1.2
x1 = 0.8058	871.007 ± 0.14	866.701 ± 0.15	862.345 ± 0.15	857.961 ± 0.15	853.562 ± 0.15	1278.3 ± 1.2	1261.3 ± 1.2	1243.9 ± 1.2	1226.4 ± 1.2	1207.5 ± 1.2
x1 = 0.852	873.053 ± 0.14	868.741 ± 0.15	864.367 ± 0.15	859.962 ± 0.15	855.538 ± 0.15	1278.6 ± 1.3	1261.3 ± 1.2	1243.9 ± 1.2	1226.3 ± 1.2	1207.5 ± 1.2
x1 = 0.8982	875.005 ± 0.15	870.664 ± 0.15	866.282 ± 0.15	861.844 ± 0.15	857.451 ± 0.15	1278.8 ± 1.3	1261.3 ± 1.3	1243.9 ± 1.2	1226.3 ± 1.2	1207.5 ± 1.2
x1 = 0.9565	877.407 ± 0.15	873.039 ± 0.15	868.667 ± 0.15	864.216 ± 0.15	859.743 ± 0.15	1279 ± 1.3	1261.5 ± 1.3	1243.9 ± 1.3	1226.3 ± 1.3	1207.5 ± 1.2
x1 = 1	879.031 ± 0.15	874.632 ± 0.15	870.204 ± 0.15	865.737 ± 0.15	861.241 ± 0.15	1279 ± 1.3	1260.9 ± 1.3	1242.9 ± 1.3	1224.9 ± 1.3	1207 ± 1.3

From the NIST ThermoML archive (doi:10.1016/j.jct.2014.07.019)
